In US9051572B2, “Modulators of Itch ubiquitinase activity” (RYBOQUIN COMPANY LIMITED, priority 2005, dated 2015):
Peptide text beside a SMILES is read from it. * marks the point of attachment. Cbz = O=C(OCc1ccccc1)*

Assays:
Assay type in all cases: cell-based, human
TAp73α = experiment: Steady state protein levels analysis with proteasome inhibitor in Hek293 cells co-transfected with Itch; conditions: MG132 50 μM, 40 min
Experimental: The concentration of TAp73α, TAp73 ? and p53 was monitored by Western blotting. […] 25 μg of cell lysates were subjected to Western blotting. p73 proteins were detected by an anti-HA antibody. The same blots were re-probed with anti Myc antibody to detect Itch and with anti-Actin antibody to show equal loading.

Itch = experiment: Western blot of endogenous Itch after DNA damaging agents in Saos-2 cells; conditions: 24 and 48 hours, 2 μM doxorubicin, 15 μM etoposide, 5 μM cisplatin
Experimental: (§1) FIG. 7 Itch is down regulated by DNA damaging agents. Saos-2 cells were treated with 2 μM doxorubicin (Doxo) for 24 or 48 hours then collected by trypsinization. Cells were lysed for western blotting (A) and half of the cells were ethanol fixed for apoptosis analysis (B). Western blots were performed with either anti-Itch (upper panel) or anti-p73 (lower panel) antibodies. Blots were stripped and re-probed with anti Lamin B antibody to show equal loading. Apoptosis was evaluated by flow cytometric analysis of PI stained cells. Non-treated controls (N.T.) are shown. H1299 cells transfected with HA-TAp73 ? (Con) are loaded as a control for p73 western blot.
(D) Western blot using anti-Itch antibody on Saos-2 cells treated for 24 and 48 hours with either 15 μM etoposide (Etopo) or 5 μM cisplatin (Cisp). Non-treated control cells are also shown (N.T.). Blots were stripped and re-probed with anti p73 antibody and Lamin B antibody to show equal loading.
Proteins were separated on SDS-PAGE and blotted onto nitrocellulose membranes. Filters were blocked with TBST 5% non-fat dry milk and incubated with primary antibodies for 2 hrs at room temperature (RT). Filters were incubated for 1 hour at RT using the appropriate horseradish peroxidase-conjugated secondary antibody (rabbit and mouse BioRad; goat Santa Cruz). Detection was performed with the enhanced chemiluminescence Supersignal West Pico (Pierce). […] Endogenous Itch was detected with a mouse monoclonal antibody (BD Bioscience), Actin (sc-1615) polyclonal goat antibody (Santa Cruz), Lamin B (sc-6217) goat polyclonal antibody (Santa Cruz), Hsp70 (sc-1060) polyclonal goat antibody (Santa Cruz), β-Tubulin (sc-9104) polyclonal rabbit antibody (Santa Cruz), p21 (sc-756) polyclonal rabbit antibody (Santa Cruz), p53 DO-1 and Pab1801 monoclonal mouse antibodies (Santa Cruz). c-Myc-tagged constructs were detected or immuno-precipitated with the sc-40 monoclonal mouse antibody (Santa Cruz), HA-tagged with the sc-805 polyclonal rabbit antibody (Santa Cruz), and the Flag-tagged constructs with the M2 monoclonal mouse antibody (Sigma).

Saos-2 cells = experiment: Apoptosis by flow cytometric analysis of PI stained cells after doxorubicin; conditions: 2 μM doxorubicin, 24 or 48 hours
Experimental: as §1
Human embryonal kidney cells (Hek293), HeLa cells and MEFs were grown in Dulbecco's modified Eagle medium (DMEM) (GibcoBRL); the human lung carcinoma cells H1299 and the human osteosarcoma cells Saos-2 were cultured in RPMI (GibcoBRL). MEF Itch−/− cells were prepared from Itch−/− mice (Y—C-Liu) or they were generous gift from Neil Copeland, Lynda Matesic, Nancy Jenkins. All media were supplemented with 10% (v/v) fetal bovine serum (FBS) (GibcoBRL). Saos-2-TAp73 ? were a kind gift of K. Vousden (Nakano, 2000). Saos-2-ΔNp73 ? were generated as described before (Maisse et al., 2004). […] Apoptosis was analysed by flow cytometric evaluation of DNA fragmentation.

TAp73 = experiment: Western blot of endogenous p73 after doxorubicin in Saos-2 cells; conditions: 2 μM doxorubicin, 24 or 48 hours
Experimental: as §1
Proteins were separated on SDS-PAGE and blotted onto nitrocellulose membranes. Filters were blocked with TBST 5% non-fat dry milk and incubated with primary antibodies for 2 hrs at room temperature (RT). Filters were incubated for 1 hour at RT using the appropriate horseradish peroxidase-conjugated secondary antibody (rabbit and mouse BioRad; goat Santa Cruz). Detection was performed with the enhanced chemiluminescence Supersignal West Pico (Pierce). Anti-p73 is a monoclonal antibody (ER15) (Neomarkers). […]

| SMILES | steady state levels of TAp73α in presence of Itch (TAp73α) | endogenous Itch protein levels (Itch) | apoptosis (Saos-2 cells) | endogenous TAp73 levels (TAp73) |
| --- | --- | --- | --- | --- |
| CC(C)C[C@@H](C=O)NC(=O)[C@H](CC(C)C)NC(=O)[C@H](CC(C)C)NC(=O)OCc1ccccc1 [MG132] (Cbz-Leu-Leu-Leu-aldehyde) | blocks the Itch-mediated TAp73α degradation | – | – | – |
| N.N.[Cl][Pt][Cl] [cisplatin] | – | dramatic reduction in Itch protein levels | – | – |
| COc1cccc2c1C(=O)c1c(O)c3c(c(O)c1C2=O)C[C@@](O)(C(=O)CO)C[C@@H]3O[C@H]1C[C@H](N)[C@H](O)[C@H](C)O1 [doxorubicin] | – | down-regulated | increase in apoptosis | increase in endogenous TAp73 levels |
| COc1cc([C@@H]2c3cc4c(cc3[C@@H](O[C@@H]3O[C@@H]5CO[C@@H](C)O[C@H]5[C@H](O)[C@H]3O)[C@H]3COC(=O)[C@H]23)OCO4)cc(OC)c1O [etoposide] | – | dramatic reduction in Itch protein levels | – | – |
